Experimental data published in patent US12440496B2, “Natriuretic peptide receptor a agonists useful for the treatment of cardiometabolic diseases, kidney disease and diabetes” (Merck Sharp & Dohme LLC, priority 2019, dated 2025).
Counter-ions that a name gives are not always drawn.

The compounds below were run against T1, hNPRA (Homo sapiens, UniProt P16066) (assay: NPRA Functional Cell Assay (cGMP HTRF, NPRA HEK JumpIn stable cells)). Conditions: cGMP production, 1 hour at 37° C., 10-point dose response.
T1 construct: expressed in transfected cells
T1 sequence (P16066 33-1061): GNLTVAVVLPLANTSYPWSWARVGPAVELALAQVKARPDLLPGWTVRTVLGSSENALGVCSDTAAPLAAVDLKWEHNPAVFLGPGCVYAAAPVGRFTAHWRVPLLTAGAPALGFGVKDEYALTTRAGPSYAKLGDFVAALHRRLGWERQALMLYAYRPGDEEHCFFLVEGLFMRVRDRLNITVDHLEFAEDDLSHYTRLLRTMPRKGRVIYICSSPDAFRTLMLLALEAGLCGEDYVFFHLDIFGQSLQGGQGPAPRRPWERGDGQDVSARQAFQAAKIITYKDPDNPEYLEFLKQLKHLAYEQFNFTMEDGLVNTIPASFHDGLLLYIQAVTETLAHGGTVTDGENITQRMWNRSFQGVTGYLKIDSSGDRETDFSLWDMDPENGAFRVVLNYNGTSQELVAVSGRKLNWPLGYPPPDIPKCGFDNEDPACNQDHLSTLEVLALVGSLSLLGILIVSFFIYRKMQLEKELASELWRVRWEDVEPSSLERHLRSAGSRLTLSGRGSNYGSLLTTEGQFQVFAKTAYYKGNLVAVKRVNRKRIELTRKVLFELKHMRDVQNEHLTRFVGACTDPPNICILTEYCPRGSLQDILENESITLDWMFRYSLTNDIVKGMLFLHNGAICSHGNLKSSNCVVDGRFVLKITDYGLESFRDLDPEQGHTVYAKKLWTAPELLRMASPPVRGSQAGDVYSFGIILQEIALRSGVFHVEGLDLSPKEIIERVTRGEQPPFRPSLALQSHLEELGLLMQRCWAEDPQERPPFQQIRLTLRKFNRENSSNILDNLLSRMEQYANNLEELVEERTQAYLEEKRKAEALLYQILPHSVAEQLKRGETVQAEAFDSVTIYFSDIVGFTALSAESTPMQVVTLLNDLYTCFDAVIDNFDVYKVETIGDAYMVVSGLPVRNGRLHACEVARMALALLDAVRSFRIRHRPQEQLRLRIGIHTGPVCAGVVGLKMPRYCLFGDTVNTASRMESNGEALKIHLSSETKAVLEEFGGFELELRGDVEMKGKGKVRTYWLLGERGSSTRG
Type: cell-based
Method in brief: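 cGMP HTRF read-out after 1 hour compound treatment at 37° C. of human NPRA-expressing HEK JumpIn cells, 1500 cells/well, in buffer with phosphodiesterase inhibitors IBMX and RO20 (100 uM each). Signal converted to [cGMP] by calibration curve; EC50s fitted by 4-parameter logistic; 50 nM h-ANP as positive response.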

Going from `CC(C)(C)[C@H]1CCc2nc3sc(C(=O)N[C@H](CCN4C[C@H](O)C[C@H]4CO)c4ccc(-c5ccc(=O)[nH]c5)cc4)cc3cc2C1` (racemic) [Example 71, rac-(6S)-6-tert-butyl-N-[rac-(1R)-1-[4-(6-oxo-1H-pyridin-3-yl)phenyl]-3-[rac-(2S,4R)-4-hydroxy-2-(hydroxymethyl)pyrrolidin-1-ium-1-yl]propyl]-5,6,7,8-tetrahydrothieno[2,3-b]quinoline-2-carboxamide;formate] to `CC(C)(C)[C@H]1CCc2nc3sc(C(=O)N[C@H](CCN4CCC(O)C4)c4ccc(-c5ccc(=O)[nH]c5)cc4)nc3cc2C1` (mixture of isomers) [Example 78, rac-(7S)-7-tert-butyl-N-[rac-(1R)-3-(3-hydroxypyrrolidin-1-yl)-1-[4-(6-oxo-1H-pyridin-3-yl)phenyl]propyl]-5,6,7,8-tetrahydrothiazolo[5,4-b]quinoline-2-carboxamide], the EC50 falls from 1990 nM to 692 nM (2.9-fold). The second is the more potent here.

First: CC(C)(C)[C@H]1CCc2nc3sc(C(=O)N[C@H](CCN4CCOCC4)c4ccc(C(=O)N[C@H]5CNC[C@@H]5O)cc4)cc3cc2C1 (racemic) [Example 72]
Second: CN(C)CC[C@@H](NC(=O)c1nc2cc3c(nc2s1)CC[C@H](C(C)(C)C)C3)c1cccc(C(=O)N[C@@H]2CNC[C@H]2O)c1 (racemic) [Example 90, rac-(7S)-7-tert-butyl-N-[rac-(1R)-3-(dimethylamino)-1-[3-[[rac-(3R,4R)-4-hydroxypyrrolidin-3-yl]carbamoyl]phenyl]propyl]-5,6,7,8-tetrahydrothiazolo[5,4-b] quinoline-2-carboxamide]
The EC50 of the first is 3.6-fold higher: 987 nM for the first, 271 nM for the second.

`CC(C)(C)[C@H]1CCc2nc3sc(C(=O)N[C@H](CCN4CCC(O)CC4)c4ccc(-c5ccc(=O)[nH]c5)cc4)nc3cc2C1` (racemic) [Example 73, rac-(7S)-7-tert-butyl-N-[rac-(1R)-3-(4-hydroxy-1-piperidyl)-1-[4-(6-oxo-1H-pyridin-3-yl)phenyl]propyl]-5,6,7,8-tetrahydrothiazolo[5,4-b]quinoline-2-carboxamide] and `CC(C)(C)[C@H]1CCc2nc3sc(C(=O)N[C@H](CCN4CCC(CO)C4)c4ccc(-c5ccc(=O)[nH]c5)cc4)nc3cc2C1` (mixture of isomers) [Example 74, rac-(7S)-7-tert-butyl-N-[rac-(1R)-3-[3-(hydroxymethyl)pyrrolidin-1-yl]-1-[4-(6-oxo-1H-pyridin-3-yl)phenyl]propyl]-5,6,7,8-tetrahydrothiazolo[5,4-b]quinoline-2-carboxamide] are within 1.5-fold of each other in EC50: 269 nM for the first, 328 nM for the second.

Compared with `CC(C)(C)[C@H]1CCc2nc3sc(C(=O)N[C@H](CCNC4CCOCC4)c4ccc(-c5ccc(=O)[nH]c5)cc4)nc3cc2C1` (racemic) [Example 75, rac-(7S)-7-tert-butyl-N-[rac-(1R)-1-[4-(6-oxo-1H-pyridin-3-yl)phenyl]-3-(tetrahydropyran-4-ylamino)propyl]-5,6,7,8-tetrahydrothiazolo[5,4-b]quinoline-2-carboxamide], `CC(C)(C)[C@H]1CCc2nc3sc(C(=O)N[C@H](CCN4CCC(O)CC4)c4ccc(-c5ccc(=O)[nH]c5)cc4)nc3cc2C1` (racemic) [Example 79, rac-(7S)-7-tert-butyl-N-[rac-(1R)-3-(4-hydroxypiperidin-1-ium-1-yl)-1-[4-(6-oxo-1H-pyridin-3-yl)phenyl]propyl]-5,6,7,8-tetrahydrothiazolo[5,4-b]quinoline-2-carboxamide; formate] is 2.3-fold lower in EC50: 634 nM for the first, 270 nM for the second. The second is the more potent here.

`CN(C)CC[C@@H](NC(=O)c1nc2cc3c(nc2s1)CC[C@H](C(C)(C)C)C3)c1ccc(-c2ccc(=O)[nH]c2)cc1` (racemic) [Example 76, rac-(7S)-7-tert-butyl-N-[rac-(1R)-3-(dimethylamino)-1-[4-(6-oxo-1H-pyridin-3-yl)phenyl]propyl]-5,6,7,8-tetrahydrothiazolo[5,4-b]quinoline-2-carboxamide] and `CC1(C)CN(CC[C@@H](NC(=O)c2nc3cc4c(nc3s2)CC[C@H](C(C)(C)C)C4)c2ccc(-c3ccc(=O)[nH]c3)cc2)C1` (racemic) [Example 77, rac-(7S)-7-tert-butyl-N-[rac-(1R)-3-(3,3-dimethylazetidin-1-yl)-1-[4-(6-oxo-1H-pyridin-3-yl)phenyl]propyl]-5,6,7,8-tetrahydrothiazolo[5,4-b]quinoline-2-carboxamide] are within 1.5-fold of each other in EC50: 665 nM for the first, 681 nM for the second.

`CC(C)(C)[C@H]1CCc2nc3sc(C(=O)N[C@H](CCN4CCC(O)CC4)c4ccc(-c5cn[nH]c5)cc4)nc3cc2C1` (racemic) [Example 80, rac-(7S)-7-tert-butyl-N-[rac-(1R)-3-(4-hydroxypiperidin-1-ium-1-yl)-1-[4-(1H-pyrazol-4-yl)phenyl]propyl]-5,6,7,8-tetrahydrothiazolo[5,4-b]quinoline-2-carboxamide; formate] and `Cn1nccc1-c1ccc([C@@H](CCN2CCC(O)CC2)NC(=O)c2nc3cc4c(nc3s2)CC[C@H](C(C)(C)C)C4)cc1` (racemic) [Example 81, rac-(7S)-7-tert-butyl-N-[rac-(1R)-3-(4-hydroxypiperidin-1-ium-1-yl)-1-[4-(2-methylpyrazol-3-yl)phenyl]propyl]-5,6,7,8-tetrahydrothiazolo[5,4-b]quinoline-2-carboxamide; formate] are within 1.5-fold of each other in EC50: 753 nM for the first, 914 nM for the second.

`CC(C)(C)[C@H]1CCc2nc3sc(C(=O)N[C@H](CCN4CCC(O)CC4)c4ccc(-n5ccnc5)cc4)nc3cc2C1` (racemic) [Example 83, rac-(7S)-7-tert-butyl-N-[rac-(1R)-3-(4-hydroxy-piperidin-1-ium-1-yl)-1-(4-imidazol-1-ylphenyl)propyl]-5,6,7,8-tetrahydro-thiazolo[5,4-b] quinoline-2-carboxamide; 2,2,2-trifluoroacetate] and `CC(C)(C)[C@H]1CCc2nc3sc(C(=O)N[C@H](CCN4CCC(O)CC4)c4ccc(N5CCOC5=O)cc4)nc3cc2C1` (racemic) [Example 85] are within 1.5-fold of each other in EC50: 681 nM for the first, 1020 nM for the second.

`CN(C)CC[C@@H](NC(=O)c1nc2cc3c(nc2s1)CC[C@H](C(C)(C)C)C3)c1cccc(C(=O)NC2CN(C)C2)c1` (racemic) [Example 86, rac-(7S)-7-tert-butyl-N-[rac-(1R)-3-(dimethyl-amino)-1-[3-[(1-methylazetidin-3-yl)carbamoyl]phenyl]propyl]-5,6,7,8-tetrahydrothiazolo[5,4-b] quinoline-2-carboxamide] and `CN(C)CC[C@@H](NC(=O)c1nc2cc3c(nc2s1)CC[C@H](C(C)(C)C)C3)c1cccc(C(=O)N[C@H]2CCN(C)C2)c1` (racemic) [Example 87, rac-(7S)-7-tert-butyl-N-[rac-(1R)-3-(dimethyl-amino)-1-[3-[rac-(3S)-1-methylpyrrolidin-3-yl]carbamoyl]phenyl]propyl]-5,6,7,8-tetrahydrothiazolo[5,4-b] quinoline-2-carboxamide] are within 1.5-fold of each other in EC50: 183 nM for the first, 207 nM for the second.

Going from `CN(C)CC[C@@H](NC(=O)c1nc2cc3c(nc2s1)CC[C@H](C(C)(C)C)C3)c1cccc(C(=O)NCC2CCN(C)C2)c1` (mixture of isomers) [Example 88, rac-(7S)-7-tert-butyl-N-[rac-(1R)-3-(dimethylamino)-1-[3-[(1-methylpyrrolidin-3-yl)methylcarbamoyl]phenyl]propyl]-5,6,7,8-tetrahydrothiazolo[5,4-b] quinoline-2-carboxamide] to `CN(C)CC[C@@H](NC(=O)c1nc2cc3c(nc2s1)CC[C@H](C(C)(C)C)C3)c1cccc(C(=O)NCCN)c1` (racemic) [Example 92, rac-(7S)-7-tert-butyl-N-[rac-(1R)-1-[3-(2-aminoethylcarbamoyl)phenyl]-3-(dimethyl-amino)propyl]-5,6,7,8-tetrahydrothiazolo[5,4-b] quinoline-2-carboxamide], the EC50 rises from 230 nM to 348 nM (1.5-fold).

`CN(C)CC[C@@H](NC(=O)c1nc2cc3c(nc2s1)CC[C@H](C(C)(C)C)C3)c1cccc(C(=O)N[C@H]2CCNC2)c1` (racemic) [Example 89, rac-(7S)-7-tert-butyl-N-[rac-(1R)-3-(dimethylamino)-1-[3-[rac-(3S)-pyrrolidin-3-yl]carbamoyl]phenyl] propyl]-5,6,7,8-tetrahydrothiazolo[5,4-b] quinoline-2-carboxamide] and `CN(C)CC[C@@H](NC(=O)c1nc2cc3c(nc2s1)CC[C@H](C(C)(C)C)C3)c1cccc(C(=O)N2CC3(CNC3)C2)c1` (racemic) [Example 91, rac-(7S)-7-tert-butyl-N-[rac-(1R)-1-[3-(2,6-diazaspiro[3.3]heptane-2-carbonyl)phenyl]-3-(dimethylamino)propyl]-5,6,7,8-tetrahydrothiazolo [5,4-b]quinoline-2-carboxamide] are within 1.5-fold of each other in EC50: 230 nM for the first, 292 nM for the second.
